Reference: patent publication US20230284620A1, “MIXTURES OF PYRIDAZINES AS HERBICIDAL COMPOSITIONS” (SYNGENTA CROP PROTECTION AG, priority 2020, published 2023)
Several values for one entry are separate records, joined by “and”; a condition that tells them apart may be missing. Identical values can stand only once.

Tests used:
Test in all cases: Post-emergence glasshouse herbicide test, visual phytotoxicity
Type in all cases: in vivo
Conditions in all cases: 13 days
[1] = test system: Digitaria sanguinalis (DIGSA)
Protocol: (§1) Seeds of Setaria faberi (SETFA), Echinochloa crus-galli (ECHCG), Digitaria sanguinalis (DIGSA), Lolium perenne (LOLPE), Alopecurus myosuroides (ALOMY), Chenopodium album (CHEAL), Ipomoea hederacea (IPOHE), Stellaria media (STEME), Abutilon threophrasti (ABUTH) and Amaranthus retroflexus (AMARE) were sown in standard sterilised soil in pots. After cultivation for 8 days under controlled conditions in a glasshouse (at 24/19° C., day/night; 16 hours light; no humidity control), the plants were sprayed at 500 l/Ha with an aqueous spray solution derived from the formulation of the technical active ingredients in a small amount of acetone and a solvent and emulsifier mixture referred to as IF50 (11.12% Emulsogen EL360 TM+44.44% N-methylpyrrolidone+44.44% Dowanol DPM glycol ether), to create a 50 g/l solution which was then diluted using 0.2% Genapol X080 (CAS Number: 9043-30-5) as diluent to give the desired final dose of test compound.
(§2) Where active ingredients were applied as mixtures, aqueous spray solutions were prepared as above, containing both active ingredients.
(§3) The test plants were then grown under controlled conditions in a glasshouse (at 24/18° C., day/night; 15 hours light; 50% humidity) and watered twice daily. After 13 days, the test was evaluated visually for percentage phytotoxicity to the plants (where 100=total damage to plant; 0=no damage to plant; and NC=not captured) when compared to control untreated plants. Two to four replicates were applied for each treatment in a randomised block test design.
(§4) 22., E=X+Y−(X*Y/100), where • X=average percent phytotoxicity of herbicide A when applied at a certain rate • Y=average percent phytotoxicity using herbicide B when applied at a certain rate • E=the expected effect of the mixture of herbicides A and B as calculated from the Colby formula.

Lolium perenne (LOLPE) = test system: Lolium perenne (LOLPE)
Protocol: as §1, §2, §3, §4

[2] = test system: Ipomoea hederacea (IPOHE)
Protocol: as §1, §2, §3, §4

Stellaria media (STEME) = test system: Stellaria media (STEME)
Protocol: as §1, §2, §3, §4

[3] = test system: Abutilon threophrasti (ABUTH)
Protocol: as §1, §2, §3, §4

[4] = test system: Amaranthus retroflexus (AMARE)
Protocol: as §1, §2, §3, §4

Setaria faberi (SETFA) = test system: Setaria faberi (SETFA)
Protocol: as §1, §2, §3, §4

[5] = test system: Chenopodium album (CHEAL)
Protocol: as §1, §2, §3, §4

[6] = test system: Echinochloa crus-galli (ECHCG)
Protocol: as §1, §2, §3, §4

[7] = test system: Alopecurus myosuroides (ALOMY)
Protocol: as §1, §2, §3, §4

## Cc1ccc2ccc(C)c(C3C(=O)C(Cl)=NN(C)C3=O)c2c1 (stereo not drawn) [A-I]
[1]; 0.625 g/ha
  percentage phytotoxicity DIGSA: 0% and 1%
[1]; 1.25 g/ha
  percentage phytotoxicity DIGSA: 0%
[1]; 2.5 g/ha
  percentage phytotoxicity DIGSA: 3% and 0%
[1]; 5 g/ha
  percentage phytotoxicity DIGSA: 22% and 21%
Lolium perenne (LOLPE); 0.625 g/ha
  percentage phytotoxicity LOLPE: 0% and 3%
Lolium perenne (LOLPE); 1.25 g/ha
  percentage phytotoxicity LOLPE: 0% and 3%
Lolium perenne (LOLPE); 2.5 g/ha
  percentage phytotoxicity LOLPE: 3% and 1%
Lolium perenne (LOLPE); 10 g/ha
  percentage phytotoxicity LOLPE: 43% and 35%
[2]; 0.625 g/ha
  percentage phytotoxicity IPOHE: 13%
[2]; 2.5 g/ha
  percentage phytotoxicity IPOHE: 53% and 48%
[2]; 5 g/ha
  percentage phytotoxicity IPOHE: 63%
[2]; 10 g/ha
  percentage phytotoxicity IPOHE: 74%
Stellaria media (STEME); 0.625 g/ha
  percentage phytotoxicity STEME: 34%
Stellaria media (STEME); 1.25 g/ha
  percentage phytotoxicity STEME: 64% and 58%
Stellaria media (STEME); 2.5 g/ha
  percentage phytotoxicity STEME: 66%
Stellaria media (STEME); 5 g/ha
  percentage phytotoxicity STEME: 79%
Stellaria media (STEME); 10 g/ha
  percentage phytotoxicity STEME: 84%
[3]; 0.625 g/ha
  percentage phytotoxicity ABUTH: 6%
[3]; 2.5 g/ha
  percentage phytotoxicity ABUTH: 21%
[3]; 5 g/ha
  percentage phytotoxicity ABUTH: 58% and 55%
[3]; 10 g/ha
  percentage phytotoxicity ABUTH: 60%
[4]; 0.625 g/ha
  percentage phytotoxicity AMARE: 14%
[4]; 1.25 g/ha
  percentage phytotoxicity AMARE: 44%
[4]; 2.5 g/ha
  percentage phytotoxicity AMARE: 70%
[4]; 5 g/ha
  percentage phytotoxicity AMARE: 74%
[4]; 10 g/ha
  percentage phytotoxicity AMARE: 73%
Setaria faberi (SETFA); 0.625 g/ha
  percentage phytotoxicity SETFA: 0%
Setaria faberi (SETFA); 1.25 g/ha
  percentage phytotoxicity SETFA: 0%
Setaria faberi (SETFA); 5 g/ha
  percentage phytotoxicity SETFA: 43%
Setaria faberi (SETFA); 10 g/ha
  percentage phytotoxicity SETFA: 72%
[5]; 0.625 g/ha
  percentage phytotoxicity CHEAL: 6%
[5]; 2.5 g/ha
  percentage phytotoxicity CHEAL: 13% and 16%
[5]; 5 g/ha
  percentage phytotoxicity CHEAL: 28% and 26%
[6]; 0.625 g/ha
  percentage phytotoxicity ECHCG: 0%
[6]; 1.25 g/ha
  percentage phytotoxicity ECHCG: 0%
[6]; 2.5 g/ha
  percentage phytotoxicity ECHCG: 8%
[6]; 5 g/ha
  percentage phytotoxicity ECHCG: 39%
[6]; 10 g/ha
  percentage phytotoxicity ECHCG: 64%
[7]; 0.625 g/ha
  percentage phytotoxicity ALOMY: 0%
[7]; 1.25 g/ha
  percentage phytotoxicity ALOMY: 0%
[7]; 2.5 g/ha
  percentage phytotoxicity ALOMY: 0%
[7]; 5 g/ha
  percentage phytotoxicity ALOMY: 9% and 0%
[7]; 10 g/ha
  percentage phytotoxicity ALOMY: 21%

## CN1C[C@H](c2cccc(C(F)(F)F)c2)[C@@H](C(=O)Nc2ccccc2F)C1=O [B-III]
[1]; 3.125 g/ha
  percentage phytotoxicity DIGSA: 72%
[1]; 6.25 g/ha
  percentage phytotoxicity DIGSA: 74%
[1]; 12.5 g/ha
  percentage phytotoxicity DIGSA: 78%
[1]; 25 g/ha
  percentage phytotoxicity DIGSA: 79%
[1]; 50 g/ha
  percentage phytotoxicity DIGSA: 80%
Lolium perenne (LOLPE); 3.125 g/ha
  percentage phytotoxicity LOLPE: 30%
Lolium perenne (LOLPE); 6.25 g/ha
  percentage phytotoxicity LOLPE: 43%
Lolium perenne (LOLPE); 12.5 g/ha
  percentage phytotoxicity LOLPE: 55%
Lolium perenne (LOLPE); 25 g/ha
  percentage phytotoxicity LOLPE: 70%
Lolium perenne (LOLPE); 50 g/ha
  percentage phytotoxicity LOLPE: 75%
[2]; 3.125 g/ha
  percentage phytotoxicity IPOHE: 9%
[2]; 6.25 g/ha
  percentage phytotoxicity IPOHE: 11%
[2]; 12.5 g/ha
  percentage phytotoxicity IPOHE: 15%
[2]; 25 g/ha
  percentage phytotoxicity IPOHE: 24%
[2]; 50 g/ha
  percentage phytotoxicity IPOHE: 28%
Stellaria media (STEME); 3.125 g/ha
  percentage phytotoxicity STEME: 13%
Stellaria media (STEME); 6.25 g/ha
  percentage phytotoxicity STEME: 21%
Stellaria media (STEME); 12.5 g/ha
  percentage phytotoxicity STEME: 14%
Stellaria media (STEME); 25 g/ha
  percentage phytotoxicity STEME: 46%
Stellaria media (STEME); 50 g/ha
  percentage phytotoxicity STEME: 71%
[3]; 3.125 g/ha
  percentage phytotoxicity ABUTH: 10%
[3]; 6.25 g/ha
  percentage phytotoxicity ABUTH: 4%
[3]; 12.5 g/ha
  percentage phytotoxicity ABUTH: 3%
[3]; 25 g/ha
  percentage phytotoxicity ABUTH: 19%
[3]; 50 g/ha
  percentage phytotoxicity ABUTH: 18%
[4]; 3.125 g/ha
  percentage phytotoxicity AMARE: 4%
[4]; 6.25 g/ha
  percentage phytotoxicity AMARE: 6%
[4]; 12.5 g/ha
  percentage phytotoxicity AMARE: 10%
[4]; 25 g/ha
  percentage phytotoxicity AMARE: 21%
[4]; 50 g/ha
  percentage phytotoxicity AMARE: 31%
Setaria faberi (SETFA); 3.125 g/ha
  percentage phytotoxicity SETFA: 66%
Setaria faberi (SETFA); 6.25 g/ha
  percentage phytotoxicity SETFA: 68%
Setaria faberi (SETFA); 12.5 g/ha
  percentage phytotoxicity SETFA: 70%
Setaria faberi (SETFA); 25 g/ha
  percentage phytotoxicity SETFA: 74%
Setaria faberi (SETFA); 50 g/ha
  percentage phytotoxicity SETFA: 73%
[5]; 3.125 g/ha
  percentage phytotoxicity CHEAL: 6%
[5]; 6.25 g/ha
  percentage phytotoxicity CHEAL: 10%
[5]; 12.5 g/ha
  percentage phytotoxicity CHEAL: 14%
[5]; 25 g/ha
  percentage phytotoxicity CHEAL: 44%
[5]; 50 g/ha
  percentage phytotoxicity CHEAL: 56%
[6]; 3.125 g/ha
  percentage phytotoxicity ECHCG: 70%
[6]; 6.25 g/ha
  percentage phytotoxicity ECHCG: 70%
[6]; 12.5 g/ha
  percentage phytotoxicity ECHCG: 73%
[6]; 25 g/ha
  percentage phytotoxicity ECHCG: 73%
[6]; 50 g/ha
  percentage phytotoxicity ECHCG: 75%

## CS(=O)(=O)c1ccc(C(=O)C2C(=O)CCCC2=O)c(Cl)c1OCCC1OCCO1 [B-II]
[1]; 0.625 g/ha
  percentage phytotoxicity DIGSA: 0%
[1]; 1.25 g/ha
  percentage phytotoxicity DIGSA: 5%
[1]; 2.5 g/ha
  percentage phytotoxicity DIGSA: 0%
[1]; 5 g/ha
  percentage phytotoxicity DIGSA: 10%
[1]; 10 g/ha
  percentage phytotoxicity DIGSA: 3%
Lolium perenne (LOLPE); 0.625 g/ha
  percentage phytotoxicity LOLPE: 0%
Lolium perenne (LOLPE); 1.25 g/ha
  percentage phytotoxicity LOLPE: 5%
Lolium perenne (LOLPE); 2.5 g/ha
  percentage phytotoxicity LOLPE: 0%
Lolium perenne (LOLPE); 5 g/ha
  percentage phytotoxicity LOLPE: 5%
Lolium perenne (LOLPE); 10 g/ha
  percentage phytotoxicity LOLPE: 0%
[2]; 0.625 g/ha
  percentage phytotoxicity IPOHE: 5%
[2]; 1.25 g/ha
  percentage phytotoxicity IPOHE: 15%
[2]; 2.5 g/ha
  percentage phytotoxicity IPOHE: 20%
[2]; 5 g/ha
  percentage phytotoxicity IPOHE: 45%
[2]; 10 g/ha
  percentage phytotoxicity IPOHE: 55%
Stellaria media (STEME); 0.625 g/ha
  percentage phytotoxicity STEME: 0%
Stellaria media (STEME); 1.25 g/ha
  percentage phytotoxicity STEME: 10%
Stellaria media (STEME); 2.5 g/ha
  percentage phytotoxicity STEME: 28%
Stellaria media (STEME); 5 g/ha
  percentage phytotoxicity STEME: 53%
Stellaria media (STEME); 10 g/ha
  percentage phytotoxicity STEME: 70%
[3]; 0.625 g/ha
  percentage phytotoxicity ABUTH: 0%
[3]; 1.25 g/ha
  percentage phytotoxicity ABUTH: 40%
[3]; 2.5 g/ha
  percentage phytotoxicity ABUTH: 43%
[3]; 5 g/ha
  percentage phytotoxicity ABUTH: 58%
[3]; 10 g/ha
  percentage phytotoxicity ABUTH: 70%
[4]; 0.625 g/ha
  percentage phytotoxicity AMARE: 0%
[4]; 1.25 g/ha
  percentage phytotoxicity AMARE: 13%
[4]; 2.5 g/ha
  percentage phytotoxicity AMARE: 25%
[4]; 5 g/ha
  percentage phytotoxicity AMARE: 53%
[4]; 10 g/ha
  percentage phytotoxicity AMARE: 58%
Setaria faberi (SETFA); 0.625 g/ha
  percentage phytotoxicity SETFA: 0%
Setaria faberi (SETFA); 1.25 g/ha
  percentage phytotoxicity SETFA: 3%
Setaria faberi (SETFA); 2.5 g/ha
  percentage phytotoxicity SETFA: 0%
Setaria faberi (SETFA); 5 g/ha
  percentage phytotoxicity SETFA: 5%
Setaria faberi (SETFA); 10 g/ha
  percentage phytotoxicity SETFA: 0%
[5]; 0.625 g/ha
  percentage phytotoxicity CHEAL: 5%
[5]; 1.25 g/ha
  percentage phytotoxicity CHEAL: 15%
[5]; 2.5 g/ha
  percentage phytotoxicity CHEAL: 30%
[5]; 5 g/ha
  percentage phytotoxicity CHEAL: 55%
[5]; 10 g/ha
  percentage phytotoxicity CHEAL: 65%
[6]; 0.625 g/ha
  percentage phytotoxicity ECHCG: 0%
[6]; 1.25 g/ha
  percentage phytotoxicity ECHCG: 5%
[6]; 2.5 g/ha
  percentage phytotoxicity ECHCG: 0%
[6]; 5 g/ha
  percentage phytotoxicity ECHCG: 8%
[6]; 10 g/ha
  percentage phytotoxicity ECHCG: 5%
[7]; 0.625 g/ha
  percentage phytotoxicity ALOMY: 0%
[7]; 1.25 g/ha
  percentage phytotoxicity ALOMY: 3%
[7]; 2.5 g/ha
  percentage phytotoxicity ALOMY: 0%
[7]; 5 g/ha
  percentage phytotoxicity ALOMY: 5%
[7]; 10 g/ha
  percentage phytotoxicity ALOMY: 0%
